Source: patent US8324190B2, “Treatment of proliferative disorders with amino-substituted (E)-2,6- dialkoxystyryl 4-substituted benzylsulfones” (Temple University—Of The Commonwealth System of Higher …, priority 2002, dated 2012)

Key:
Experiment in all cases: Tumor cell viability assay, Trypan blue exclusion
Type in all cases: cell-based
Conditions in all cases: cell viability after 96 hours
[1] = test system: breast adenocarcinoma cell line BT-20
Procedure: (§1) BT-20 is an estrogen-unresponsive cell line. NIH/3T3 and HFL are normal murine and human fibroblasts, respectively. BT-20, DLD-1 and H157 were grown in Dulbecco's modified Eagle's medium (DMEM) containing 10% fetal bovine serum supplemented with penicillin and streptomycin. DU145 was cultured in RPMI with 10% fetal bovine serum containing penicillin and streptomycin. NIH3T3 and HFL cells were grown in DMEM containing 10% calf serum supplemented with penicillin and streptomycin. Cells were plated at density levels of 1.0×10^5 cells per well in six-well plates. Cell cultures were maintained at 37° C. in a humidified atmosphere of 5% CO2. Cells were treated with compounds of the invention at various concentrations. Cell viability was determined after 96 hours by the Trypan blue exclusion method. […] The number of viable cells remaining after 96 hours of treatment was determined using hemacytometer following trypan blue staining. The number of viable cells has been plotted as the percent of Vehicle treated (control) cells.

[2] = test system: non-small cell lung carcinoma cell line H157
Procedure: as §1

[3] = test system: prostate carcinoma cell line DU-145
Procedure: as §1

[4] = test system: colorectal carcinoma cell line DLD-1
Procedure: as §1

| Structure (SMILES) | IC50 [1] | IC50 [2] | IC50 [3] | IC50 [4] |
| --- | --- | --- | --- | --- |
| COc1cc(OC)c(/C=C/S(=O)(=O)Cc2ccc(OC)c(S(=O)(=O)NCC(=O)O)c2)c(OC)c1 [Example 1, (E)-2,4,6-Trimethoxystyryl-3-(carboxymethylsulfamyl)-4-methoxybenzylsulfone] | < 10 µM | < 10 µM | < 10 µM | < 10 µM |
| COc1cc(OC)c(/C=C/S(=O)(=O)Cc2ccc(OC)c(NC(=O)c3cc([N+](=O)[O-])cc([N+](=O)[O-])c3)c2)c(OC)c1 [Example 5, (E)-2,4,6-trimethoxystyryl-3-(3,5,dinitrobenzamido)-4-methoxy-benzylsulfone] | < 10 µM | < 10 µM | < 10 µM | < 10 µM |
| COc1cc(OC)c(/C=C/S(=O)(=O)Cc2ccc(OC)c(NC(=O)c3cc(N)cc(N)c3)c2)c(OC)c1 [Example 6, (E)-2,4,6-trimethoxystyryl-3-(3,5,diaminobenzamido)-4-methoxy-benzylsulfone] | < 10 µM | < 10 µM | < 10 µM | < 10 µM |
| COc1cc(OC)c(/C=C/S(=O)(=O)Cc2ccc(OC)c(NC(=O)CN3CCN(C)CC3)c2)c(OC)c1 [Example 8] | < 10 µM | < 10 µM | < 10 µM | < 10 µM |
| COc1cc(OC)c(/C=C/S(=O)(=O)Cc2ccc(OC)c(NC(=O)c3ccccc3)c2)c(OC)c1 [Example 9, (E)-2,4,6-Trimethoxystyryl-3-(benzamido)-4-methoxybenzyl-sulfone] | < 10 µM | < 10 µM | < 10 µM | < 10 µM |
| COc1cc(OC)c(/C=C/S(=O)(=O)Cc2ccc(OC)c(NC(=O)c3ccc([N+](=O)[O-])cc3)c2)c(OC)c1 [Example 10, (E)-2,4,6-Trimethoxystyryl-3-(4-nitrobenzamido)-4-methoxy-benzylsulfone] | < 10 µM | < 10 µM | < 10 µM | < 10 µM |
| COc1cc(OC)c(/C=C/S(=O)(=O)Cc2ccc(OC)c(NS(=O)(=O)c3ccc([N+](=O)[O-])cc3[N+](=O)[O-])c2)c(OC)c1 [Example 19, (E)-2,4,6-Trimethoxystyryl-3-(2,4-dinitrobenzenesulfamyl)-4-methoxybenzylsulfone] | < 10 µM | < 10 µM | < 10 µM | < 10 µM |
| COc1cc(OC)c(/C=C/S(=O)(=O)Cc2ccc(OC)c(NS(=O)(=O)c3ccc(N)cc3N)c2)c(OC)c1 [Example 20, (E)-2,4,6-Trimethoxystyryl-3-(2,4-diaminobenzenesulfamyl)-4-methoxybenzylsulfone] | < 10 µM | < 10 µM | < 10 µM | < 10 µM |
| COc1cc(OC)c(/C=C/S(=O)(=O)Cc2ccc(OC)c(NC(=O)CN(C)C)c2)c(OC)c1 [Example 21, (E)-2,4,6-trimethoxystyryl-3-(dimethylaminoacetamido)-4-methoxybenzylsulfone] | < 10 µM | < 10 µM | < 10 µM | < 10 µM |
| COc1cc(OC)c(/C=C/S(=O)(=O)Cc2ccc(OC)c(NC(=O)c3ccc(N4CCN(C)CC4)cc3)c2)c(OC)c1 [Example 23, (E)-2,4,6-trimethoxystyryl-3-[4-(4-methylpiperazin-1-yl)-benzamido]-4-methoxybenzylsulfone] | < 10 µM | < 10 µM | < 10 µM | < 10 µM |
| COc1cc(OC)c(/C=C/S(=O)(=O)Cc2ccc(OC)c(NC(=O)C[n+]3ccccc3)c2)c(OC)c1 [Example 25, (E)-2,4,6-trimethoxystyryl-3-(pyridinium-1-yl)acetamido-4-methoxybenzylsulfone] | < 10 µM | < 10 µM | < 10 µM | < 10 µM |
| COc1cc(OC)c(/C=C/S(=O)(=O)Cc2ccc(OC)c(NC(=O)COC(C)=O)c2)c(OC)c1 [Example 26, (E)-2,4,6-trimethoxystyryl-3-(acetoxyacetamido)-4-methoxy-benzylsulfone] | < 10 µM | < 10 µM | < 10 µM | < 10 µM |
| CC[N+](CC)(CC)CC(=O)Nc1cc(CS(=O)(=O)/C=C/c2c(OC)cc(OC)cc2OC)ccc1OC [Example 28, (E)-2,4,6-trimethoxystyryl-3-(triethylammoniumacetamido)-4-methoxybenzylsulfone] | < 10 µM | < 10 µM | < 10 µM | < 10 µM |
| COc1cc(OC)c(/C=C/S(=O)(=O)Cc2ccc(OC)c(NC(=O)C[N+](CCO)(CCO)CCO)c2)c(OC)c1 [Example 29, (E)-2,4,6-trimethoxystyryl-3-[tri-(2-hydroxyethyl)ammonium]-acetamido-4-methoxybenzylsulfone] | < 10 µM | < 10 µM | < 10 µM | < 10 µM |
| COc1cc(OC)c(/C=C/S(=O)(=O)Cc2ccc(OC)c(NC(=O)C(C)(C)O)c2)c(OC)c1 [Example 30, (E)-2,4,6-trimethoxystyryl-3-(2-methyl-2-hydroxypropion-amido)-4-methoxybenzylsulfone] | < 10 µM | < 10 µM | < 10 µM | < 10 µM |
| COc1cc(OC)c(/C=C/S(=O)(=O)Cc2ccc(OC)c(NC(=O)C(C)(C)OC(C)=O)c2)c(OC)c1 [Example 31, (E)-2,4,6-trimethoxystyryl-3-(2-methyl-2-acetoxypropionamido)-4-methoxybenzyl-sulfone] | < 10 µM | < 10 µM | < 10 µM | < 10 µM |
| COc1cc(OC)c(/C=C/S(=O)(=O)Cc2ccc(OC)c(NC(=O)C(F)(F)F)c2)c(OC)c1 [Example 32, (E)-2,4,6-trimethoxystyryl-3-(trifluoroacetamido)-4-methoxy-benzylsulfone] | < 10 µM | < 10 µM | < 10 µM | < 10 µM |
| COc1cc(OC)c(/C=C/S(=O)(=O)Cc2ccc(OC)c(NS(=O)(=O)C(F)(F)F)c2)c(OC)c1 [Example 33, (E)-2,4,6-trimethoxystyryl-3-(trifluoromethanesulfonamido)-4-methoxy-benzylsulfone] | < 10 µM | < 10 µM | < 10 µM | < 10 µM |

The next lines start with the values.

| IC50 [1] | IC50 [2] | IC50 [3] | IC50 [4] | Structure (SMILES) |
| --- | --- | --- | --- | --- |
| < 10 µM | < 10 µM | < 10 µM | < 10 µM | COc1cc(OC)c(/C=C/S(=O)(=O)Cc2ccc(OC)c(NC(=O)CC(=O)O)c2)c(OC)c1 [Example 2, (E)-2,4,6-Trimethoxystyryl-3-(carboxyacetamido)-4-methoxy-benzylsulfone] |
| < 10 µM | < 10 µM | < 10 µM | < 10 µM | COc1cc(OC)c(/C=C/S(=O)(=O)Cc2ccc(OC)c(NC(=N)N)c2)c(OC)c1 [Example 3, (E)-2,4,6-Trimethoxystyryl-3-(guanidino)-4-methoxybenzyl-sulfone] |
| < 10 µM | < 10 µM | < 10 µM | < 10 µM | COc1cc(OC)c(/C=C/S(=O)(=O)Cc2ccc(OC)c(NCC(=O)O)c2)c(OC)c1 [Example 4, (E)-2,4,6-Trimethoxystyryl-3-(carboxymethylamino)-4-methoxy-benzylsulfone] |
| < 10 µM | < 10 µM | < 10 µM | < 10 µM | COc1cc(OC)c(/C=C/S(=O)(=O)Cc2ccc(OC)c(NC(=O)CCl)c2)c(OC)c1 [Example 7, (E)-2,4,6-Trimethoxystyryl-3-(chloroacetamido)-4-methoxybenzyl-sulfone] |
| < 10 µM | < 10 µM | < 10 µM | < 10 µM | COc1cc(OC)c(/C=C/S(=O)(=O)Cc2ccc(OC)c(NC(N)=O)c2)c(OC)c1 [Example 16, (E)-2,4,6-Trimethoxystyryl-3-(ureido)-4-methoxybenzylsulfone] |
| < 10 µM | < 10 µM | < 10 µM | < 10 µM | CNc1cc(CS(=O)(=O)/C=C/c2c(OC)cc(OC)cc2OC)ccc1OC [Example 17, (E)-2,4,6-Trimethoxystyryl-3-(N-methylamino)-4-methoxybenzyl-sulfone] |
| < 10 µM | < 10 µM | < 10 µM | < 10 µM | COc1cc(OC)c(/C=C/S(=O)(=O)Cc2ccc(OC)c(NC(C)=O)c2)c(OC)c1 [Example 18, (E)-2,4,6-Trimethoxystyryl-3-(acetamido)-4-methoxybenzyl-sulfone] |
| < 10 µM | < 10 µM | < 10 µM | < 10 µM | COc1cc(OC)c(/C=C/S(=O)(=O)Cc2ccc(OC)c(NC(C)C(=O)O)c2)c(OC)c1 (stereo not shown) [Example 22, (E)-2,4,6-trimethoxystyryl-3-[(1-carboxyethyl)amino]-4-methoxybenzylsulfone] |
| < 10 µM | < 10 µM | < 10 µM | < 10 µM | COc1cc(OC)c(/C=C/S(=O)(=O)Cc2ccc(OC)c(NC(=O)CO)c2)c(OC)c1 [Example 24, (E)-2,4,6-trimethoxystyryl-3-(hydroxyacetamido)-4-methoxy-benzylsulfone] |
| < 10 µM | < 10 µM | < 10 µM | < 10 µM | COc1cc(OC)c(/C=C/S(=O)(=O)Cc2ccc(OC)c(NC(=O)C(C)O)c2)c(OC)c1 (stereo not shown) [Example 27, (E)-2,4,6-Trimethoxystyryl-3-(2-hydroxypropionamido)-4-methoxy benzylsulfone] |
